The test system of data set [1] is TNF-α, IL-1β and IL-6 mRNA. Nature of the data set: Cytokine mRNA in OHSC from transgenic 3×Tg-AD mice (RT-qPCR). Format: cell-based, transgenic Tau mice (3×Tg-AD). The settings on record: OHSC from transgenic mice overexpressing P-Tau, 50-150 μM, 10 days, vs vehicle. The procedure:
FIG. 11. Plots illustrating the effect of Aftin-5 mediated attenuation of TNF-α (A) and IL-1β (B) and IL-6 (C) in organotypic hippocampal slice cultures from wild type mice (C57BI/6J) and transgenic Tau mice (3×Tg-AD). 3 Tg organotypic hippocampal slice cultures media were replaced by incubation medium containing Aftin-5 at 50 μM (A50), 100 μM (A100) and 150 μM (A150) or vehicle (0.1% DMSO; Veh). After chronic treatment (10 days) total mRNA in lysate was isolated and purified, cDNAs were then synthesized from […] of total mRNA. cDNAs were amplified by quantitative RT-PCR and the relative expression of specific genes was normalized to the housekeeping gene HPRT1 (2^−ΔCt). […] Data expressed as means+/−SEM (n=2-6 wells/condition) from q=2 independent experiments with n=2-6 inserts/conditions and 10 slices/insert. […]
The impact of Aftin-5 on gene expression of different biomarkers was determined by measuring mRNA levels of selected BDNF, CREB, PS95, INS Receptor/IGF-1 receptor, IL-1β, IL-6 in OHSC treated chronically with Aftin-5 or in a total brain from mice exposed to Aftin-5 at either 8 or 30 mg/Kg. […] Threshold cycles (Ct) of target gene and cyclophilin A (Ppia−control housekeeping gene) were recorded and gene expression was calculated as 2^−ΔΔCt(ΔΔCt=ΔCttreated−ΔCtcontrol, ΔCt=Cttarget−CtPpia). […]
For orientation: In qPCR the cycle at which signal appears reflects the starting amount.

The test system of data set [2] is Thr231 phosphorylated Tau. Nature of the data set: Tau phosphorylation (Thr231) in neuronal primary cultures (MSD). Format: cell-based, mice. The settings on record: neurons, 50 μM, 100 μM and 150 μM for 18 h. Here is the method:
FIG. 7. Plots illustrating the effect of Aftin-5 mediated attenuation of Tau phosphorylation in neuronal primary cultures. Culture media of cortical neurons were replaced by incubation medium containing Aftin-5 at 100 μM (A100) or 150 μM (A150) or vehicle (0.1% DMSO; Control). After 18 h incubation pTau (Thr231) and total Tau were quantified by sandwich immunoassay using the Meso Scale Discovery technology. Different Tau concentrations were expressed versus total proteins concentration. Kruskal-Wallis test and Dunn's Multiple Comparison post-hoc tests were performed and ***p<0.001 indicates significant differences between Aftin-5 and control conditions. Data expressed as means+/−SEM (n=6 wells/condition).
Hippocampi and cortex were dissected in HBSS containing 5 mM glucose (dissection medium). […] Cells were counted and seeded at a density of 22,000 per cm^2 for hippocampal neurons and 10^5 per cm^2 for cortical neurons into 24 wells culture plates (Costar) in plating medium (DMEM medium containing 10% heat-inactivated horse serum (Life Technologies)). […]
Tau and P-Tau in primary rat neurons, organotypic hippocampal slice cultures from wild type (WT) and transgenic Tau mice (3 Tg) after by Aftin-5. Tau was quantified by sandwich immunoassay using the Meso Scale Discovery technologies. […] After a short incubation (5 min) at room temperature, the plate is read on the SECTOR Imager 2400. […]

Data set [3] has as its system in vitro cell based rat BBB model.
Description: A 20% BSA gradient was used for isolation of capillaries. After a second enzymatic digestion, cells were plated in 75 cm^2 coated culture flasks in EBM medium completed by the EGM-2 MV Single Quots kit (Lonza, Basel, Switzerland). Cultures were maintained at 37° C. in a humidified 5% CO2 atmosphere for 5-6 days before being trypsinized and frozen.
The chambers containing human glial cells and brain endothelial cells were considered as the basolateral and apical compartment, respectively. The microplates were then incubated at 37° C. in a 5% CO2 atmosphere. Under these experimental conditions, brain endothelial cells formed a confluent monolayer within 15 days.
After checking BBB integrity, Transwells® with BEC monolayers were transferred to new plates. T buffer (150 mM NaCl, 5.2 mM KCl, 2.2 mM CaCl2, 0.2 mM MgCl2, 6 mM NaHCO3, 2.8 mM glucose and 5 mM Hepes) was added 1.5 mL to the basal chamber (B) and 0.5 ml to the apical chamber (A). […] The Papp value was calculated as followed: Papp=dQ/dT×A×C0 (1) where dQ/dT: amount of drug transported per time-point; A: membrane surface area; Co: donor concentration at time-point 0. […] The mass balance was calculated as follows: R (%)=([(Ap+Bs)/A0]×100 (2) where Ap and Bs are the amount of tested compounds in the apical and basal compartments, respectively. A0 is the initial amount in the donor compartment.

For `CC[C@H](CO)Nc1nc(N(C)c2ccccc2)c2ncn(C(C)C)c2n1` [Aftin-5], in data set [1], the “cytokine-mRNA synthesis (TNF-α, IL-1β, IL-6)” value is “decreases”. Further, the “Thr231 phosphorylated Tau protein” value in data set [2] is on record as “significant dose dependent decrease”. Moreover, the “Papp compared to Papp value of memantine” value in data set [3] is reported as “not significantly different”.

Source of the values: patent publication US11472807B2, “Purine derivatives for use as medicament and for use in treating neurodegenerative or neuro-inflammatory disorders” (COMMISSARIAT À L'ENERGIE ATOMIQUE ET AUX ENERGIES …, priority 2017, dated 2022).
